Results reported in patent US9618513B2, “Compositions and methods for detecting and treating colorectal cancer” (The Regents of the University of Michigan, priority 2014, dated 2017).
Entries after “also recorded” stand apart in the source; their conditions may differ.

Columns and labels:
Assay type in all cases: cell-based, human
STAT3 = assay: STAT phosphorylation by western blotting; conditions: colon cancer cells treated with IL-22
Description: (A) IL-22 induced STAT3 phosphorylation. Colon cancer cells were treated with IL-22 for different time points. The protein levels of phosphorylated STAT3 and STAT3 were detected by Western blotting. (B, C) IL-22 induced colon cancer spheres via STAT3. Sphere assay was performed with shSTAT3 colon cancer cells in the presence of IL-22. Results were shown as sphere images (b) and the mean numbers of spheres in triplicate (c). (n=5. P<0.01). (D-F) IL-22 stimulated colon cancer sternness gene expression via STAT3. Colon cancer cells expressing shSTAT3 or scrambled vector were cultured with IL-22. Stem cell core gene mRNAs were detected by real-time PCR after 6 hours (n=5, *P<0.05). (G, H) IL-22 causes STAT3 occupancy on SOX2 promoter areas. STAT3-ChIP assay was performed in DLD-1 cells cultured with or without IL-22. One of at least three experiments is shown.
A. The protein level of phosphorylated STAT3, STAT1 and STATS were activated by IL-22. B. The effect of STAT3 knock down. C. The effect of IL-22 on cell proliferation was analyzed using H^3 Thymidine Incorporation in Stat3 knock down cells. D. Knock down of STAT3 reduced the expression of EZH2 and SUZ12. E. Based on the ENCODE STAT3-ChIP-Seq data base, STAT3 occupancy on the promoter areas of SUZ12 and EED is shown. F. SUZ12/EED DNA was detected by ChIP assay using an antibody against STAT3, c-fos was used as a positive control. […]

DOT1L, AFF4, MLLT10 = assay: DOT1L complex gene expression by real-time PCR; conditions: DLD-1 and primary colon cancer cells, IL-22 12 hours
Description: (A) IL-22 induces H3K79me2 in colon cancer cells. Colon cancer cells were treated with IL-22 for 48 hours. Total histone modifications were analyzed by western blot. (B, C) DOT1L inhibitor, EPZ004777 suppresses colon cancer sphere formation induced by IL-22. Colon cancer sphere assay was performed in the presence of IL-22 and EPZ004777. Sphere numbers were recorded. DLD-1 cells (B), primary colon cancer cells (C). (n=5, P<0.05). (D, E) IL-22 stimulates DOT1L complex gene expression. Colon cancer cells were cultured for 12 hours with IL-22. DOT1L complex gene expression was quantified by real-time PCR. DLD-1 cells (D), primary colon cancer cells (E). (n=3, P<0.05). (F) DOT1L knock down results in reduced colon cancer sphere formation induced by IL-22. Colon cancer sphere assay was performed with colon cancer cells expressing sh-DOT1L or vector in the presence of IL-22. Sphere numbers were recorded. (n=5, P<0.05). (G-I), IL-22 causes higher occupancy of H3K79me2 on core stem cell gene promoters. H3K79me2-ChIP assay was performed in DLD-1 colon cancer cells cultured with IL-22. One of 3 experiments is shown. […]
The mRNA was quantified by real-time RT-PCR. […] SYBR Green Master Mix was used to detect fluorescence. Relative expression was calculated according to the Ct value with normalization to GAPDH.

colon cancer cells = assay: Apoptosis by Annexin V FACS
Description: FIG. 20A-D A. Realtime PCR was used to detected the mRNA level of p53, p21, CCNE1 after stimulated with IL-22 in primary colon cancer cell lines. B. The effect of IL-22 on colon cancer cell apoptosis was analyzed by Annexin V using FACS. C.D The effect of IL-22 on 5-Fu induced apoptosis was also analyzed by Annexin V.

[1] = tested on: H3K27me3 in the promoter of p16 and p18; assay: H3K27me3 ChIP at p16 and p18 promoters; conditions: after IL-22 stimulation
Description: A, C. Cell proliferation was analyzed using H^3 Thymidine Incorporation. B. The level of total H3K79m2 and H3K27me3 was measured by Western Blot. D. PcG proteins of EZH2, EED, SUZ12 was increased with IL-22(20 ng/ml) treatment. E. EZH2, SUZ12 and EED was detected by Western Blot after IL-22 treated for 24 h or 48 h. F. EZH2 inhibitor DZNep reduced cell proliferation. G.H. The efficiency of EZH2 and SUZ12 knock down was tested by Western Blot. I.J. Cell proliferation was analyzed using H^3 Thymidine Incorporation after knock down of EZH2 and SUZ12. K.L. Relative expression of cyclin-dependent kinase inhibitors (p16 and p18) in shEZH2, shSUZ12 and Dznep treated cells after IL-22 treatment. M. The level of H3K27me3 in the promoter of p16 and p18 was analyzed by ChIP assay.
ChIP assay was performed according to the protocol (Upstate, Millipore; htt, followed by, p://www.millip, followed by, ore.com/techpublica, followed by, tions/tech1/mcproto407). Crosslinking was performed with 1% formaldehyde or 1% paraformaldehyde for 10 min. To enhance cell lysis, we ran the lysate through a 27 g needle three times and flash froze it in −80° C. Sonication was then performed with the Misonix 4000 water bath sonication unit at 15% amplitude for 10 min. Protein/DNA complex was precipitated by specific antibodies against H3K79me2, H3K27me3 (Millipore), Stat3 (Cell Signaling) and IgG control (Millipore). […]

IL-22: recombinant IL-22 (R&D systems), cytokine interleukin-22
STAT3 activation (phosphorylation) (STAT3): activated; also recorded: activated STAT3 strongly
expression of DOT1L, AFF4 (DOT1L, AFF4, MLLT10): consistently promoted
cell apoptosis (colon cancer cells; IL-22 combined with 5-FU): no change
cell apoptosis (colon cancer cells; IL-22 stimulation alone): no change
level of H3K27m3 in the promoter of p16 and p18 [1]: increased
